Reference: patent US10028506B2, “Plant strengthener comprising a tocopherol and a boron compound” (COMPO EXPERT GMBH, priority 2013, dated 2018)

Experiments:
Format in all cases: in vivo
[1] = system: tangerine trees cv. "satsuma" fruits; assay: Protection against sun-scorch, field experiments on tangerines (satsumas); conditions: dilute aqueous preparation (0.25 kg/ha); tangerines field experiment
Procedure: For the field experiments, the formulations were diluted with tap water in an amount of 100 l per kg of formulation. The plants were sprayed with the aqueous dilution with the aid of a commercially available plant protection sprayer at an application rate of 0.25 kg tocopherol/ha. The study was carried out in a fruit plantation in South Africa (Western Cape region, Simondium) in February. To this end, tangerine trees cv. “satsuma” were sprayed with an aqueous dilution of formulation F2 or formulation FV2 6 days before the harvest in two adjacent plots, in parallel experiments. The controls used were in each case untreated trees of the same plot. To determine the damage, in each case approximately 30 fruits were harvested from each tree of the treated trees and of the untreated trees and then observed. The proportion of damaged fruits of the treated trees and of the untreated trees of the respective experiment was determined, and the percentage reduction in damage was determined on this basis. Damage was considered to be yellowish discolorations of the green fruit skin.

[2] = system: apple trees cv. "Granny Smith" fruits; assay: Protection against sun-scorch, field experiments on apples; conditions: dilute aqueous preparation (0.25 kg/ha); apples field experiment
Procedure: For the field experiments, the formulations were diluted with tap water in an amount of 100 l per kg of formulation. The plants were sprayed with the aqueous dilution with the aid of a commercially available plant protection sprayer at an application rate of 0.25 kg tocopherol/ha. The study was carried out in an apple plantation in South Africa (Somerset-West region) in February. To this end, apple trees cv. “Granny Smith” were sprayed with an aqueous dilution of formulation F2 or formulation FV2 8 days before the harvest in two adjacent plots, in parallel experiments. The controls used were in each case untreated trees of the same plot. To determine the damage, in each case approximately 30 fruits were harvested from each tree of the treated trees and of the untreated trees and then observed. The proportion of damaged fruits of the treated trees and of the untreated trees of the respective experiment was determined, and the percentage reduction in damage was determined on this basis. Damage was considered to be reddish and brownish discolorations of the fruit skin.

[3] = system: apple (variety Elstar) inflorescences, severed branches; assay: Frost protection activity on apple inflorescences in frost chamber; conditions: dilute aqueous preparation (0.25 kg/ha), −2° C. for 4 hours
Procedure: (§1) For the following studies, tocopherol-comprising formulations were diluted with water to give a tocopherol concentration of 0.25% by weight.
(§2) Boroethanolamine was diluted with water to give a concentration of 0.25% by weight.
(§3) Freshly severed branches with 20 to 50 inflorescences (inflorescence stage BBCH 60-69) were used for studying the protection of inflorescences. The twigs were sprayed to runoff point with the aqueous dilution of the respective formulation, using a hand-held sprayer.
(§4) The tests of the formulations in respect of their frost protectant activity were carried out under controlled conditions in frost chambers with fruit-tree inflorescences (apple (variety Elstar), severed branches, sweet cherry (variety Hedelfinger), severed branches).
(§5) The fruit trees were treated 24 hours before the frost event by spraying the inflorescences with the dilute formulation.
(§6) (b) Treatment with formulation FV1 (0.25 g/l tocopherol),
(§7) (c) Treatment with formulation F1 (0.25 g/l tocopherol)+0.25 g/l boroethanolamine).
(§8) The branches were severed from the plant shortly before the test and then exposed to a temperature of −2° C. for a defined period (4 hours). On the following day, the relative number of the inflorescences with frost damage was determined visually. Damage was considered to be browning of the floral tissue (pedicel and ovaries).

[4] = system: sweet cherry (variety Hedelfinger) inflorescences, severed branches; assay: Frost protection activity on sweet cherry inflorescences in frost chamber; conditions: dilute aqueous preparation (0.25 kg/ha), −2° C. for 4 hours
Procedure: as §1, §2, §3, §4, §5, §6, §7, §8

NCCOB(O)O [boroethanolamine]
no significant change over the control: change in sun-scorch damage over the control [1] | change in sun-scorch damage over the control [2] | change in frost damage over the control [3] | change in frost damage over the control [4]
